# Laboratory results from PMC10313368 (The Journal of Clinical Investigation, 2023).
# Where “and” joins values, the source holds several entries; their conditions need not be identical. Equal values may be shown once.
# Tests used:
# HIF-1α = biological target: T1, HIF-1α (Mus musculus, UniProt Q61221); experiment: Western blot of HIF-1α in neurosensory retina of STZ-diabetic mice; assay type: in vivo; conditions: IP 32-134D 40 or 80 mg/kg; Supplementary Figure 3
# T1 construct: from tissue; host or cells: retina of C57BL/6 OIR pups
# T1 sequence (Q61221 whole entry): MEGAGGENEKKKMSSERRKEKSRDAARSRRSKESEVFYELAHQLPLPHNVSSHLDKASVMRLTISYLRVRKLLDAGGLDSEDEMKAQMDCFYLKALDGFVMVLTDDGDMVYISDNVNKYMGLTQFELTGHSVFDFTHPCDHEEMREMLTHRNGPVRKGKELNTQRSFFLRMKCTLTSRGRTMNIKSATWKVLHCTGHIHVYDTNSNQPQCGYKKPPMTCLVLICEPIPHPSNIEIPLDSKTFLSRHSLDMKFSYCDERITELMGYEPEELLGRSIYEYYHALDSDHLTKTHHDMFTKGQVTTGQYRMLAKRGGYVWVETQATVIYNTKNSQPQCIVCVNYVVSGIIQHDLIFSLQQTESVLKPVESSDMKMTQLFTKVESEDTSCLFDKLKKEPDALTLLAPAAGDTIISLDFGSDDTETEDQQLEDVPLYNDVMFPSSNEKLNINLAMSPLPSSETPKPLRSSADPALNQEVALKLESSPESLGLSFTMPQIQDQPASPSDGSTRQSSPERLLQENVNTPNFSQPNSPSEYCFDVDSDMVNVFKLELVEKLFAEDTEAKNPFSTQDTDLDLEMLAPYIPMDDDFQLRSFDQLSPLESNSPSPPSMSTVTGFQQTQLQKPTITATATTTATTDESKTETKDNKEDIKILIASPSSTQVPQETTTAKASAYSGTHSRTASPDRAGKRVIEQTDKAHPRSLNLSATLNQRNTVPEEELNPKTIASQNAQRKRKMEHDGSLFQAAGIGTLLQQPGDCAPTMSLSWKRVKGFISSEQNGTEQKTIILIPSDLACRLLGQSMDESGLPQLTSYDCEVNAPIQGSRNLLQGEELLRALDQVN
# Method: Immunoblot assays. Cells, neurosensory retina, and D120 retinal organoid lysates were subjected to 4–15% gradient SDS/PAGE (Invitrogen). Immunoblot (Western blot or WB) assays were performed as previously described (1).
# Reverse transcription and quantitative real-time PCR. Total RNA was isolated from cultured cells or retinas with PureLinkTM RNA Mini Kit (Invitrogen #12183025), and cDNA was prepared with MuLV Reverse Transcriptase (Applied Biosystems). Quantitative real-time PCR was performed with Power SYBR Green PCR Master Mix (Applied Biosystems) and MyiQ Real-Time PCR Detection System (Bio-Rad). Normalization was done using cyclophilin A for mouse tissue and human cell lines. Primers are listed in Supplemental Table 2.
# Angiogenesis array. Total RNA was isolated from MIO-MI cells (8 hours) and HUVECs (16 […]
# cDNA was prepared with QuantiTect® Reverse Transcription Kit (Qiagen, Cat# 205311). […]
# STZ-induced diabetes mouse model. […] Blood glucose was measured on experimental day 28 after 16 hours fasting and mice with blood glucose level > 250 mg/dL were considered […]
# the peritoneal cavity of neonatal C57BL/6 mice and STZ mice at indicated times, and the retinal vasculature and lysates for WB and qPCR were assessed at P17. […]
# [1] = system: HIF-regulated angiogenic mediators; experiment: mRNA expression of HIF-regulated vasoactive mediators in OIR mouse retina (qPCR); assay type: in vivo
# Method: Reverse transcription and quantitative real-time PCR. Total RNA was isolated from cultured cells or retinas with PureLinkTM RNA Mini Kit (Invitrogen #12183025), and cDNA was prepared with MuLV Reverse Transcriptase (Applied Biosystems). Quantitative real-time PCR was performed with Power SYBR Green PCR Master Mix (Applied Biosystems) and MyiQ Real-Time PCR Detection System (Bio-Rad). Normalization was done using cyclophilin A for mouse tissue and human cell lines. Primers are listed in Supplemental Table 2. […]
# Animal studies. Eight-week-old pathogen-free female C57BL/6 mice were obtained from The Jackson Laboratory (JAX). Timed pregnant C57BL/6 mice were obtained from Charles River Laboratories. Mice heterozygous for HIF-1α have been previously described (2). Mice heterozygous for HIF-2α (strain number: 003266; common name: EPAS1 KO) were purchased […]
# OIR mouse model. OIR experiments were performed as previously described (1, 3). Briefly, C57BL/6 mice were placed in 75% O2 on P7. On P12, the mice were returned to room air and were […]
# (or vehicle) by intravitreal injection. Mice with body weight less than 6 g at P17 were excluded […]
# from analysis. Data were collected from both males and females and the results were combined since there was no apparent difference between sexes. Representative images for selected time points from a minimum of three independent experiments are shown. Data from 3-8 pups were obtained at each time point. […]
# Intraperitoneal (IP) injections. […]
# intraperitoneally using an insulin syringe in OIR pups. […]
# the peritoneal cavity of neonatal C57BL/6 mice and STZ mice at indicated times, and the retinal vasculature and lysates for WB and qPCR were assessed at P17.
# Intraocular injections. Intravitreal injections were performed with a PLI-100A Pico-liter Microinjector (Warner Instruments, Harvard Bioscience) using pulled-glass micropipettes. Each micropipette was calibrated to deliver a 1 μl volume on depression of a foot switch. The mice were anesthetized with a ketamine (100 mg/kg) and xylazine (5mg/kg) mixture, and under a dissecting microscope, the sharpened tip of the micropipette was passed through the sclera just posterior to the limbus into the vitreous cavity and the foot switch was depressed, which caused fluid to […]
# [2] = OIR+32-134D i.p. 20mg/kg, Figure 10C, replicates, 20 mg/kg
# [3] = OIR+32-134D i.p. 20mg/kg, Figure 10D, replicates, 20 mg/kg
# [4] = S Figure 4B, OIR mice, 14ng I.V., replicates
# [5] = S Figure 4B, OIR mice, 70ng I.V., replicates
smiles,measurement,setting,value
"Brc1ccc2c(-c3csc(-c4c[nH]c5c(Br)cccc45)n3)c[nH]c2c1 [32-134D, 4-(6-bromo-1H-indol-3-yl)-2-(7-bromo-1H-indol-3-yl)thiazole]",HIF-1α expression in neurosensory retina of STZ mice,HIF-1α,inhibits HIF
same,mRNA expression of key HIF-regulated vasoactive mediators in OIR mice (in words),[1]; 5 consecutive (P12–P16) i.p. injections 20 mg/kg 32-134D,marked reduction
same,Vegfa mRNA,"[1]; Figure 14B, OIR mice, 14ng I.V., individual replicates",2.554 and 2.472 and 2.429
same,Vegfa mRNA,"[1]; Figure 14B, OIR mice, 70ng I.V., individual replicates",1.453 and 1.941 and 2.696
same,"other key HIF-regulated angiogenic genes including Kdr, Angptl4, Epo, Serpine1 (in words)","[1]; OIR mice P17, single intraocular 32-134D (70 ng, Supplemental Figure 4) at P12",moderate reduction
same,Angptl4 mRNA,[1]; [2],1.959 and 1.886 and 1.828
same,Epo mRNA,[1]; [2],15.9268 and 13.6786 and 15.0565
same,Pdgfb mRNA,[1]; [2],7.756 and 6.2199 and 6.871
same,Vegfa mRNA,[1]; [2],4.717 and 4.578 and 4.299
same,Angpt2 mRNA,[1]; [3],1.455 and 1.394 and 1.541
same,Kdr mRNA,[1]; [3],1.28 and 1.296 and 1.315
same,Ptprb mRNA,[1]; [3],1.109 and 1.093 and 1.12
same,Serpine1 mRNA,[1]; [3],18.6807 and 17.1616 and 18.3924
same,Angptl4 mRNA,[1]; [4],1.665 and 1.591 and 1.559
same,Epo mRNA,[1]; [4],8.623 and 9.0589 and 6.546
same,Kdr mRNA,[1]; [4],1.18 and 1.183 and 1.04
same,Serpine1 mRNA,[1]; [4],4.654 and 4.995 and 4.51
same,Angptl4 mRNA,[1]; [5],1.678 and 1.5898 and 1.693
same,Epo mRNA,[1]; [5],5.752 and 6.783 and 6.508
same,Kdr mRNA,[1]; [5],1.345 and 1.2643 and 1.301
same,Serpine1 mRNA,[1]; [5],6.417 and 6.411 and 5.108
same,Vegfa mRNA expression in OIR mice (in words),[1]; single intraocular injection 32-134D 14 ng at P12,moderate reduction
